Reference: US7723358B2, “Aroyl-O-piperidine derivatives for the treatment of diabetes-related problems” (Merck Patent GmbH, priority 2004, dated 2010)
pIC50: −log10 of the molar value.

Target: T1, microsomal triglyceride transfer protein (MTP) (Mesocricetus auratus, UniProt P55158)
T1 construct: The supernatant comprising the soluble MTP is dialysed against Tris/HCl 150 mM; from tissue; host or cells: golden hamster liver microsomes, deoxycholate-solubilised supernatant, dialysed
T1 sequence (P55158 19-895): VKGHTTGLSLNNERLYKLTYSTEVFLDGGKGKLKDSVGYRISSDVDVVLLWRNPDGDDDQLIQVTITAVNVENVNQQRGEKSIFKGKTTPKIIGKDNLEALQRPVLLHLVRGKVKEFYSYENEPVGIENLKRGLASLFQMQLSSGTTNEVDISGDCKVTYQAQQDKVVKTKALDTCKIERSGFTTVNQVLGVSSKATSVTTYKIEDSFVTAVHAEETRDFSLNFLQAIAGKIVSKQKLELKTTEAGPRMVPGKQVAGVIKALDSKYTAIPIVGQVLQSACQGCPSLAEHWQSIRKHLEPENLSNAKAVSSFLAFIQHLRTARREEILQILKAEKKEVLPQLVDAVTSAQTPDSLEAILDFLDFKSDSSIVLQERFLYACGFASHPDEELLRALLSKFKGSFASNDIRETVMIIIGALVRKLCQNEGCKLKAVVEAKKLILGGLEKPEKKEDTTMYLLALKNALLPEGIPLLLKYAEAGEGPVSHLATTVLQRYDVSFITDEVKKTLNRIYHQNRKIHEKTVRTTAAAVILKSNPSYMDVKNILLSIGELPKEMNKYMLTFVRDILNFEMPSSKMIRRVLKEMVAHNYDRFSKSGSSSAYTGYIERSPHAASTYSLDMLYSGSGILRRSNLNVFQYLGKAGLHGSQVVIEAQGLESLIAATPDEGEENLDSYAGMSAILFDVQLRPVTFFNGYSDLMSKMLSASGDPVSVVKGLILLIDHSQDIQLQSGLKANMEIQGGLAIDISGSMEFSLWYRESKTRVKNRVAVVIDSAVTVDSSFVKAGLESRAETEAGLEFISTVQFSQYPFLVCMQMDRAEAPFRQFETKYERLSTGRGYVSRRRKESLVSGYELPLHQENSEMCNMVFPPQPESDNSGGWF
Assay: Inhibition of MTP activity: transfer of [3H]-triolein from donor liposomes to biotinylated LDL, SPA
Assay type: biochemical
Conditions: MTP from golden hamster liver; incubation 18-24 hours at 37° C.; read-out: IC50, concentration that allows a 50% inhibition of MTP
Method: Analysis of the Inhibition of MTP Activity
The inhibition of the activity of microsomal triglyceride transfer protein (MTP) was tested by using the following operating protocol.
The inhibition of MTP activity with a compound can be quantified by observing the inhibition of the transfer of a labelled triglyceride, from a donor particle to an acceptor particle, in the presence of MTP. The procedure for the preparation of MTP is based on the method by Wetterau and Zilversmit (Biochem. Biophys. Acta (1986) 875, 610). A few grams of golden hamster liver are taken and then rinsed several times in a 250 mM sucrose solution at 0° C. All the following steps proceed at +4° C. A homogenate at a concentration of 50% in 250 mM sucrose is prepared using a Teflon mill and then centrifuged for 10 minutes at 10 000×g at +4° C. The supernatant is then centrifuged at 105 000×g for 75 minutes at +4° C. The supernatant is discarded and the microsomal pellet is taken up in 3 ml (per g of starting liver) of Tris/HCl 150 mM pH 8.0. 1-ml aliquot fractions are stored at −80° C. until the time of use.
After thawing a fraction of microsomes (1 ml), 12 ml of refrigerated Tris/HCl 50 mM, KCl 50 mM, MgCl2 5 mM pH 7.4 buffers and 1.2 ml of deoxycholate (0.54% in water) are added. After incubation for 30 minutes at +4° C. with gentle agitation, the suspension is centrifuged at 105 000×g for 75 minutes. The supernatant comprising the soluble MTP is dialysed against Tris/HCl 150 mM, NaCl 40 mM, EDTA 1 mM, 0.02% sodium azide pH 7.4 buffer (5 times one litre over 2-3 days). The MTP is stored at +4° C., is stable for at least 30 days and is used in unmodified form in the test.
The donor particles (liposomes) are prepared from 208 μl of L-phosphatidylcholine at a concentration of 10 mg/ml in chloroform, and 480 μl of [3H]-triolein at a concentration of 0.5 mCi/ml in toluene. After stirring, the solution is evaporated under nitrogen, taken up in 6 ml of Tris/HCl 50 mM, KCl 50 mM, MgCl2 5 mM pH 7.4 buffer and incubated in an ultrasound bath for 30 minutes at room temperature. The liposomes are stored at +4° C. and sonicated again for 10 minutes before each use.
The acceptor particles are biotinylated low density lipoproteins (LDL-biot). These particles are supplied by the company Amersham.
The reaction mixture is prepared in untreated ½ well white plates (Corning Costar) by addition, in the following order, of: 5 μl of HEPES 50 mM, NaCl 150 mM, BSA 0.1% (w/v), 0.05% sodium azide (w/v), pH 7.4 buffer; 5 μl of liposome; 5 μl of LDL-biot; 5 μl of test products in DMSO; 5 μl of MTP. After incubation for 18-24 hours at 37° C., the reaction is stopped by adding 100 μl of Amersham SPA (Scintillation Proximity Assay) beads coupled to streptavidin, and the radioactivity is counted using a Top Count (Packard) machine at least one hour later. The inhibition of the transfer of the triglycerides with a compound is reflected by a reduction in the transferred radioactivity.
The results are expressed in terms of the IC50, i.e. the concentration that allows a 50% inhibition of MTP.

Row | Compound | pIC50
1 | Cc1cccc(C(=O)Nc2cccc(OC3CCN(C(=O)Nc4cccc(C(F)(F)F)c4)CC3)c2)c1-c1ccc(OC(F)(F)F)cc1 [Example 24, 4-[3-[[[6-methyl-4-(trifluoromethoxy)[1,1′-4-biphenyl]-2-yl]carbonyl]amino]phenoxy]-N-[3-(trifluoromethyl)phenyl]-1-piperidine-carboxamide] | 6.34
2 | CC(=O)OCC(=O)N1CCC(Oc2cccc(NC(=O)c3ccccc3-c3ccc(OC(F)(F)F)cc3)c2)CC1 [Example 126, N-[3-[[1-[2-(acetyloxy)acetyl]-4-piperidin-yl]oxy]phenyl]-4′-(trifluoromethoxy)[1,1′-biphenyl]-2-carboxamide] | 7.04
3 | COC(=O)c1cccc(NC(=O)N2CCC(Oc3cccc(NC(=O)c4cccc(C)c4-c4ccc(OC(F)(F)F)cc4)c3)CC2)c1 [Example 43, methyl 3-[[[4-[3-[[[6-methyl-4′-(trif1uoro-methoxy)[1,1′-biphenyl]-2-yl]carbonyl]-amino]phenoxy]-1-piperidinyl]carbonyl]-amino]benzoate] | 6.70
4 | Cc1ccc(CN2CCC(Oc3cccc(NC(=O)c4cccc(C)c4-c4ccc(OC(F)(F)F)cc4)c3)CC2)cc1 [Example 85, 6-methyl-N-[3-[[1-[(4-methylphenyl)-methyl]-4-piperidinyl]oxy]phenyl]-4′-(trifluoromethoxy)[1,1′-biphenyl]-2-carboxamide] | 6.41
5 | Cc1cccc(C(=O)Nc2cccc(OC3CCN(C(=O)NCc4ccccc4)CC3)c2)c1-c1ccc(OC(F)(F)F)cc1 [Example 35, 4-[3-[[[6-methyl-4′-(trifluoromethoxy)[1,1′-biphenyl]-2-yl]carbonyl]amino]phenoxy]-N-(phenylmethyl)-1-piperidinecarbox-amide] | 6.92
6 | COc1cccc(NC(=O)N2CCC(Oc3cccc(NC(=O)c4cccc(C)c4-c4ccc(OC(F)(F)F)cc4)c3)CC2)c1 [Example 23, N-(3-methoxyphenyl)-4-[3-[[[6-methyl-4′-(trifluoromethoxy)[1,1′-biphenyl]-2-yl]-carbonyl]amino]phenoxy]-1-piperidine-carboxamide] | 6.58
7 | CSc1ccc(NC(=O)N2CCC(Oc3cccc(NC(=O)c4cccc(C)c4-c4ccc(OC(F)(F)F)cc4)c3)CC2)cc1 [Example 39, N-[4-(methylthio)phenyl]-4-[3-[[[6-methyl-4′-(trifluoromethoxy)[1,1′-biphenyl]-2-yl]-carbonyl]amino]phenoxy]-1-piperidine-carboxamide] | 7.07
8 | Cc1cccc(C(=O)Nc2cccc(OC3CCN(C(=O)Nc4ccc(F)cc4)CC3)c2)c1-c1ccc(OC(F)(F)F)cc1 [Example 25, N-(4-fluorophenyl)-4-[3-[[[6-methyl-4′-(trifluoromethoxy)[1,1′-biphenyl]-2-yl]-carbonyl]amino]phenoxy]-1-piperidine-carboxamide] | 6.44
9 | CCOC(=O)N1CCC(Oc2cccc(NC(=O)c3ccccc3-c3ccc(C(F)(F)F)cc3)c2)CC1 [Example 77, ethyl 4-[3-[[[4′-(trifluoromethyl)[1,1′-biphenyl]-2-yl]carbonyl]amino]phenoxy]-1-piperidinecarboxylate] | 7.08
10 | O=C(Nc1cccc(OC2CCN(C(=O)c3ccno3)CC2)c1)c1ccccc1-c1ccc(OC(F)(F)F)cc1 [Example 115, N-[3-[[1-(5-isoxazolylcarbonyl)-4-piperi-dinyl]oxy]phenyl]-4′-(trifluoromethoxy)-[1,1′-biphenyl]-2-carboxamide] | 6.36
11 | Cc1cccc(C(=O)Nc2cccc(OC3CCN(C(=O)Nc4cccc(C#N)c4)CC3)c2)c1-c1ccc(OC(F)(F)F)cc1 [Example 37, N-(3-cyanophenyl)-4-[3-[[[6-methyl-4′-(trifluoromethoxy)[1,1′-biphenyl]-2-yl]-carbonyl]amino]phenoxy]-1-piperidine-carboxamide] | 7.19
12 | Cc1cccc(C(=O)Nc2cccc(OC3CCN(C(=O)NC(C)C)CC3)c2)c1-c1ccc(OC(F)(F)F)cc1 [Example 30, N-(1-methylethyl)-4-[3-[[[6-methyl-4′-(trifluoromethoxy)[1,1′-biphenyl]-2-yl]-carbonyl]amino]phenoxy]-1-piperidine-carboxamide] | 6.43
13 | Cc1cccc(C(=O)Nc2cccc(OC3CCN(Cc4cccs4)CC3)c2)c1-c1ccc(OC(F)(F)F)cc1 [Example 59, [1,1′-biphenyl]-6-methyl-N-[3-[[1-(2-thienylmethyl)-4-piperidinyl]oxy]phenyl]-4′-(trifluoromethoxy)-2-carboxamide] | 6.73

The remaining compounds from weak to strong by pIC50, led by results:

Row | pIC50 | Compound
14 | 6.46 | Cc1cccc(C(=O)Nc2cccc(OC3CCN(C(=O)Nc4ccccc4)CC3)c2)c1-c1ccc(OC(F)(F)F)cc1 [Example 11, 4-[3-[[[6-methyl-4′-(trifluoromethoxy)[1,1′-biphenyl]-2-yl]carbonyl]amino]phenoxy]-N-phenyl-1-piperidinecarboxamide]
15 | 6.60 | COC(=O)CC(=O)N1CCC(Oc2cccc(NC(=O)c3ccccc3-c3ccc(OC(F)(F)F)cc3)c2)CC1 [Example 125, methyl β-oxo-4-[3-[[[4′-(trifluoromethoxy)-[1,1′-biphenyl]-2-yl]carbonyl]amino]-phenoxy]-1-piperidinepropanoate]
16 | 6.68 | COc1ccc(CC(=O)N2CCC(Oc3cccc(NC(=O)c4cccc(C)c4-c4ccc(OC(F)(F)F)cc4)c3)CC2)cc1OC [Example 105, N-[3-[[1-[2-(3,4-dimethoxyphenyl)-acetyl]-4-piperidinyl]oxy]phenyl]-6-methyl-4′-(trifluoromethoxy)[1,1′-biphenyl]-2-carboxamide]
17 | 6.73 | Cc1cccc(C(=O)Nc2cccc(OC3CCN(C(=O)NC4CCCC4)CC3)c2)c1-c1ccc(OC(F)(F)F)cc1 [Example 57, N-cyclopentyl-4-[3-[[[6-methyl-4′-(trifluoro-methoxy)[1,1′-biphenyl]-2-yl]carbonyl]-amino]phenoxy]-1-piperidinecarboxamide]
18 | 6.74 | Cc1cccc(C(=O)Nc2cccc(OC3CCN(C(=O)c4cccnc4)CC3)c2)c1-c1ccc(OC(F)(F)F)cc1 [Example 106, 6-methyl-N-[3-[[1-(3-pyridinylcarbonyl)-4-piperidinyl]oxy]phenyl]-4′-(trifluorometh-oxy)[1,1′-biphenyl]-2-carboxamide]
19 | 6.89 | CCOC(=O)CCC(=O)N1CCC(Oc2cccc(NC(=O)c3cccc(C)c3-c3ccc(OC(F)(F)F)cc3)c2)CC1 [Example 96, ethyl 4-[3-[[[6-methyl-4′-(trifluoromethoxy)-[1,1′-biphenyl]-2-yl]carbonyl]amino]-phenoxy]-γ-oxo-1-piperidinebutanoate]
